The results in this text go back to ChEMBL document CHEMBL1135683, “2002 Alfred Burger Award Address in Medicinal Chemistry. Natural products and design: interrelated approaches in drug discovery” (J Med Chem, 2002).

Where a SMILES comes first, the peptide text is derived from it. The star is where a group is joined. Octanoyl = CCCCCCCC(=O)*

Experiment [1] deals with T1, Angiotensin-converting enzyme (Homo sapiens, UniProt P12821). The experiment can be described thus: Inhibition of Angiotensin I converting enzyme (ACE) in Bothrops jararaca venom.
T1 sequence (P12821 whole entry): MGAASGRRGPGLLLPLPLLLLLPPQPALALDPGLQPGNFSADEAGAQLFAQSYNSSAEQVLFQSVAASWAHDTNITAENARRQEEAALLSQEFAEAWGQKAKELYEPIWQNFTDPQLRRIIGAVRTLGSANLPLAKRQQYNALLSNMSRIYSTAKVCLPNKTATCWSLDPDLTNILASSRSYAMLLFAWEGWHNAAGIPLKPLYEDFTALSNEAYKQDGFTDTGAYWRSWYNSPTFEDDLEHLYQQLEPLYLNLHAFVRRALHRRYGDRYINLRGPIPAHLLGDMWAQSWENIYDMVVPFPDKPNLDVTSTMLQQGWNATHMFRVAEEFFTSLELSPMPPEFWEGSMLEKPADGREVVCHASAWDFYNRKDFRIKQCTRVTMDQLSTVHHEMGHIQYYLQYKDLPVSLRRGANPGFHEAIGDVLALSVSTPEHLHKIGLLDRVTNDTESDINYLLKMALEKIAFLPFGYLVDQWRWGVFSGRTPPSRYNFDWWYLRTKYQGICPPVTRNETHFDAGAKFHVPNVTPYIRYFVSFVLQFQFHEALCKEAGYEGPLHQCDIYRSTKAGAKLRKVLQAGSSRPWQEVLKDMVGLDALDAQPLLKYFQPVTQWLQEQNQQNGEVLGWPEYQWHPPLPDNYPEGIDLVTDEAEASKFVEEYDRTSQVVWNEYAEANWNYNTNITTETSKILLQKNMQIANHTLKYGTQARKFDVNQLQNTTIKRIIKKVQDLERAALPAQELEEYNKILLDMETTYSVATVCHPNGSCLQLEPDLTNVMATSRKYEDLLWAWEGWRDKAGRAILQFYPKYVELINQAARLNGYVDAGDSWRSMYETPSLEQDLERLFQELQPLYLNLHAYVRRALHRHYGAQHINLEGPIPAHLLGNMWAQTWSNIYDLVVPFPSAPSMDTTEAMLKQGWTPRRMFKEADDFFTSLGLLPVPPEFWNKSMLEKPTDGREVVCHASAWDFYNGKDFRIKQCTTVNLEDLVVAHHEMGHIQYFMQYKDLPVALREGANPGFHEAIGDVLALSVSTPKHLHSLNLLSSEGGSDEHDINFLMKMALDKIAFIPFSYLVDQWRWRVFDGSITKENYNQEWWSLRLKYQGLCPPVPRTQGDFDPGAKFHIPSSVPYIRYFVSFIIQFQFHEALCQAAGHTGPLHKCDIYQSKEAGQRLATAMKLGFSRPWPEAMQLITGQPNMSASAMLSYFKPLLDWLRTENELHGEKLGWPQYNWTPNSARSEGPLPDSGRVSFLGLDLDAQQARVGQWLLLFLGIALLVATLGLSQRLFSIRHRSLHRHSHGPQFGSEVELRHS
Experiment [2] has as its target T1, Angiotensin-converting enzyme. The experiment can be described thus: Inhibitory activity against Angiotensin I converting enzyme (ACE) in venom of Bothrops jararaca. The class given is tissue-based.
Experiment [3] addresses Growth hormone secretagogue receptor type 1 (Homo sapiens, UniProt Q92847). The experiment can be described thus: Ability to displace [125I]ghrelin from cloned human Growth hormone secretagogue receptor type I (GSH1a) expressed in COS-7 cells. The class given is cell-based.
For experiment [4], the target named is T1, Angiotensin-converting enzyme. The experiment can be described thus: The compound was evaluated for the (%) inhibition of Angiotensin I converting enzyme in venom of Bothrops jararaca at the dose of 10e-4 M. Type of experiment: tissue-based.
The target in experiment [5] is Somatostatin receptor type 1 (Homo sapiens, UniProt P30872). The experiment can be described thus: Binding affinity towards Somatostatin receptor type 1 (hsst1).
Somatostatin receptor type 1, sequence (P30872 whole entry): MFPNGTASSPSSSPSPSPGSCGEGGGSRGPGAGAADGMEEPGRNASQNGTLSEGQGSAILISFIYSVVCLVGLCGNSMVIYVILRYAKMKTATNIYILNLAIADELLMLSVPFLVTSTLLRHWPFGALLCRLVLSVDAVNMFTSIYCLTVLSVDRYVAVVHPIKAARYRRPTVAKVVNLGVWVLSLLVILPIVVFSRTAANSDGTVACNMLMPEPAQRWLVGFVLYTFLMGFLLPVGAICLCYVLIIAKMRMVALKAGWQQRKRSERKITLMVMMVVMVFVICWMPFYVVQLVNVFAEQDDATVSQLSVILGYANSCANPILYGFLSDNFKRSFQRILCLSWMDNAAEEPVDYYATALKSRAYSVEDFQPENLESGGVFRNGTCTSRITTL
In experiment [6] the target is Somatostatin receptor type 3 (Homo sapiens, UniProt P32745). The experiment can be described thus: Binding affinity towards Somatostatin receptor type 3 (hsst3).
Somatostatin receptor type 3, sequence (P32745 whole entry): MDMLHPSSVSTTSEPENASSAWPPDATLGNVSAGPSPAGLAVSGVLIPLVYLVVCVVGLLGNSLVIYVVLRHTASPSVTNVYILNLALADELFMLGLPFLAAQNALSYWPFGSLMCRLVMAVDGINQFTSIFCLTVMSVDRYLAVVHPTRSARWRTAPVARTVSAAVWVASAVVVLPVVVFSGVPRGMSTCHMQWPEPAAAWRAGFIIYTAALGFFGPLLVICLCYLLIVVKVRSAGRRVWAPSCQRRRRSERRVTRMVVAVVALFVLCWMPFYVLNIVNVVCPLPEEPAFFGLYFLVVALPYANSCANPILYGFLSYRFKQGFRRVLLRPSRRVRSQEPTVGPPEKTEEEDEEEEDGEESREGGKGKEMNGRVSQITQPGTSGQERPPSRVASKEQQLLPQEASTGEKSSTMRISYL
The target of experiment [7] is Somatostatin receptor type 4 (Homo sapiens, UniProt P31391). The experiment can be described thus: Binding affinity towards Somatostatin receptor type 4 (hsst4).
Somatostatin receptor type 4, sequence (P31391 whole entry): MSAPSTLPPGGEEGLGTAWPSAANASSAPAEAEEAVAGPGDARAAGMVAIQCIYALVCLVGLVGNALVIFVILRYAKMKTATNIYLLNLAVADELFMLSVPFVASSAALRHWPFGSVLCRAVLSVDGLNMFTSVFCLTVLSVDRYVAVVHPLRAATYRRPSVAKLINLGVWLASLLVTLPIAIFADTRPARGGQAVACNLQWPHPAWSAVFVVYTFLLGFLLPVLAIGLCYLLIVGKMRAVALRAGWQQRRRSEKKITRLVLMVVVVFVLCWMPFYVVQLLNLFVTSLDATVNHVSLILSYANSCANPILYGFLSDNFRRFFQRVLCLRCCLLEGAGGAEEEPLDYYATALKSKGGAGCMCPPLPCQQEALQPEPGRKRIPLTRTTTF
Experiment [8] concerns the target Somatostatin receptor type 5 (Homo sapiens, UniProt P35346). The experiment can be described thus: Binding affinity towards Somatostatin receptor type 5 (hsst5).
The nature of experiment [9]: The compound was evaluated for the inhibition of Glycolate oxidase.

Growth hormone secretagogue receptor type 1, sequence (Q92847 whole entry): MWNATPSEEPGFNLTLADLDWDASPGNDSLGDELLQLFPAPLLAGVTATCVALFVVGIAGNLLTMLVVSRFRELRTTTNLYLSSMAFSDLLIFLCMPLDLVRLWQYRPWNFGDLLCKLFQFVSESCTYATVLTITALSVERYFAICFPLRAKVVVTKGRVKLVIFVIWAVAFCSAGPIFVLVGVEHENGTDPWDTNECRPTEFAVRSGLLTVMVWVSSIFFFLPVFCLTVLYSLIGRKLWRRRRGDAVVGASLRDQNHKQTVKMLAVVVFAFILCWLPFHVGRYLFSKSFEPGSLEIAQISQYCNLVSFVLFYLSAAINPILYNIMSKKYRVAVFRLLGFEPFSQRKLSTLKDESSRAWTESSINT
Somatostatin receptor type 5, sequence (P35346 whole entry): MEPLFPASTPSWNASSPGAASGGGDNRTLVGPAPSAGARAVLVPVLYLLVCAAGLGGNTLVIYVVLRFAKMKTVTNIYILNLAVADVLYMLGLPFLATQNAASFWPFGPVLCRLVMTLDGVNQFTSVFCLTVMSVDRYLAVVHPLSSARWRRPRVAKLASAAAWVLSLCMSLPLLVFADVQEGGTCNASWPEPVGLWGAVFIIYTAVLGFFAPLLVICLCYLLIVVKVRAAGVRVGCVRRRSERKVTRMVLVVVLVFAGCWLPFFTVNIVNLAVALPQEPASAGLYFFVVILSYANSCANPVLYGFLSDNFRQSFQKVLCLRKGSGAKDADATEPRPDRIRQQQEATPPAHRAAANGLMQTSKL

Usually IC50 stands for the concentration at which inhibition is half-maximal. Low values mean higher potency, high ones lower potency. As to H-EKWAP-OH, the IC50 in [1] was 0.06 µM.

Broadly, the Ki is the equilibrium dissociation constant of an inhibitor or competing ligand from its target. `O=CC(Cc1ccccc1)NC(CCc1ccccc1)C(=O)O` (stereo unspecified) yielded a Ki in experiment [2] of 50 µM.

Turning to `O=C(O)CCCC(=O)N1CCC[C@H]1C(=O)O`, in experiment [1], the IC50 was determined as 70 µM.

In turn, `CCCCCCCC(=O)OC[C@H](NC(=O)[C@H](CO)NC(=O)CN)C(=O)N[C@@H](Cc1ccccc1)C(=O)N[C@@H](CC(C)C)C(=O)N[C@@H](CO)C(=O)N1CCC[C@H]1C(=O)N[C@@H](CCC(=O)O)C(=O)N[C@@H](Cc1c[nH]cn1)C(=O)N[C@@H](CCC(N)=O)C(=O)N[C@@H](CCCN=C(N)N)C(=O)N[C@H](C(=O)N[C@@H](CCC(N)=O)C(=O)N[C@@H](CCC(N)=O)C(=O)N[C@@H](CCCN=C(N)N)C(=O)N[C@@H](CCCCN)C(=O)N[C@@H](CCC(=O)O)C(=O)N[C@@H](CO)C(=O)N[C@@H](CCCCN)C(=O)N[C@@H](CCCCN)C(=O)N1CCC[C@H]1C(=O)N1CCC[C@H]1C(=O)N1CCC[C@H]1C(=O)N[C@@H](C)C(=O)N[C@@H](CCCCN)C(=O)N[C@@H](CC(C)C)C(=O)N[C@@H](CCC(N)=O)C(=O)N1CCC[C@H]1C(=O)N[C@@H](CCCN=C(N)N)C(=O)O)C(C)C` (H-GSS(Octanoyl)FLSPEHQRVQQRKESKKPPPAKLQPR-OH) returned an IC50 in experiment [3] of 0.71 nM.

As usually defined, the inhibition is the share of the control response that was lost under treatment. For `O=C(O)CCC(=O)N1CCC[C@H]1C(=O)O`, in experiment [4], the inhibition is 43%.

For the compound `C[C@@H](c1c[nH]c2ccccc12)[C@@H](NC(=O)N1CCC(n2c(=O)[nH]c3ccccc32)CC1)C(=O)N[C@@H](CCCCN)C(=O)OC(C)(C)C`, the Ki amounted to 2390 nM in experiment [5], 31 nM in experiment [6], 81 nM in experiment [7] and 163 nM in experiment [8].

In the case of `CC(CCC(=O)N1CCC[C@H]1C(=O)O)C(=O)O` (stereo partly specified), the IC50 in [1] is 260 µM.

Consider `O=C(O)/C(O)=C\C(=O)c1ccc(-c2ccc(Br)cc2)cc1`, for which half-maximal inhibition in experiment [9] (IC50) required 60 nM.
